Values of other authors in patent US20130287898A1, “Trivalent Chromium and Boron Fortifying Composition, a Hydration Supplement, and Process for Preparing the Same” (priority 2010, published 2013).

Key:
[1] = in vivo
[2] = Expert group of vitamins & Minerals, UK - 2003
[3] = humans, 270 mg orally

## [B] [Boron]
[1]
  absorption from the gastrointestinal tract: well absorbed
  excreted through urine: about 90%

## [Cr] [Chromium]
[2]
  Safe Upper level per day: 10 mg

## OB(O)O [boric acid]
[3]
  discomfort / signs of toxicity: no obvious signs of toxicity
